From patent publication US20080220056A1, “Treatment for liver disease” (UNIVERSITY OF SOUTHAMPTON, priority 2002, published 2008)

Legend:
[1] = tested on: 10 day culture activated hepatic stellate cells; assay: Nuclear morphology (acridine orange) of hepatic stellate cells treated with 5-HT2 antagonists; type: cell-based, rat
Protocol: (§1) The mRNA for the 5-HT2B receptor was only found in 10 day culture activated hepatic stellate cells, whereas the mRNA for the 5-HT2C receptor was absent from all cells investigated. […] 10 day culture activated hepatic stellate cells were treated with a range of 5-HT2 antagonists (including Spiperone HCl, Methiothepin Maleate and LY 53,857) at various concentrations and time periods and nuclear morphology was assessed using Acridine Orange (1 μg/ml) staining as described in Examples 1 and 2. […] Caspase 3 activity (as defined by pNA liberation) was subsequently determined at the predetermined optimal times and doses as described in Examples 1 and 2. 10 day culture activated hepatic stellate cells were also treated with the antagonist together with the 5-HT2 agonist serotonin (5-hydroxytryptamine 100 µM) to see if any modification of the caspase 3 specific activity could be achieved by direct receptor binding site competition.

[2] = tested on: caspase 3 activity in 10 day culture activated hepatic stellate cells; assay: Caspase 3 activity (pNA liberation) of hepatic stellate cells treated with 5-HT2 antagonists; type: cell-based, rat; settings: for effect of serotonin on the specific caspase 3 activity: LY 53,857 100 μM 24 hours, Methiothepin maleate 10 μM 3 hours, with serotonin (100 M [sic])
Protocol: as §1

[3] = tested on: rat hepatic stellate cells; assay: Trypan blue exclusion of treated rat hepatic stellate cells; type: cell-based; settings: rat HSC; 1.5 μmol/L gliotoxin or 200 μmol/L chlorpromazine
[4] = tested on: caspase 3 activity in rat hepatic stellate cells; assay: Caspase 3 (Ac-DEVD-pNA cleavage) activity in rat hepatic stellate cells; type: cell-based; settings: 200 μmol/L chlorpromazine, three hours
Protocol: Hepatic stellate cells cultured in 100 mm diameter dishes (Greiner, Frickenhausen, Germany) were harvested and pelleted by centrifugation. The medium supernatant was discarded and the cell pellet was washed in 1 mL of ice-cooled phosphate buffered saline (PBS). Caspase 3 (DEVDase) activity was determined using a colorimetric CaspACE kit (Promega, Southampton, England) using the manufacturer's instructions.
Caspase 3 (Ac-DEVD-pNA cleavage) activity was then examined in control and gliotoxin-treated hepatic stellate cells. Culture activated rat hepatic stellate cells (14 days) in 100 mm diameter plates were treated with 0.05% (vol/vol) DMSO, 1.5 μmol/L gliotoxin, 20 μmol/L Z-VAD-FMK or 200 μmol/L chlorpromazine for three hours. The cells were then harvested for examination of caspase 3 activity as outlined in the materials and methods sections.

[5] = tested on: rat hepatocytes; assay: Rat hepatocyte viability by attachment and trypan blue exclusion; type: cell-based; settings: 200 μmol/L, four hours
Protocol: Rat hepatocytes were isolated by collagenase perfusion essentially as previously described. (Harvey et al., Biochemical J., (1998) 331:273-281). Hepatocytes were cultured as outlined for hepatic stellate cells except that they were initially seeded onto collagen coated plates in William's medium E supplemented with 10% fetal calf serum and 1 μg/mL insulin for the first 2 hours.
Cells were treated with gliotoxin dissolved in DMSO vehicle (added to medium from a 2000-fold molar concentrated stock). Control cells received DMSO vehicle only (i.e., 0.05% vol/vol). All other additions to culture medium were made from concentrated stocks dissolved in DMSO or by direct addition to culture medium. Protein contents of wells were determined using the Lowry assay (Lowry et al., J. Biol. Chem., (1951)193: 265-275).
The effect of various compounds on cell viability and attachment was determined. Viability of rat hepatocytes as judged by attachment and 0.1% (wt/vol) trypan blue exclusion after four hours treatment with: […]

[6] = tested on: rat hepatocytes; assay: DNA laddering in rat hepatocytes; type: cell-based; settings: four hours; 50 μmol/L gliotoxin, 200 μmol/L chlorpromazine, 200 μmol/L methapyrilene, 10 ng/mL TNF-α with cycloheximide
Protocol: Hepatic stellate cells cultured in 35-mm diameter dishes (Greiner) were harvested, pelleted by centrifugation and DNA fragmentation determined as outlined elsewhere (Elsharkawy et al., Hepatology (1999) 30:761-769). Propidium Iodide Flow-Activated Cell Sorting Analysis Detached cells were pelleted by centrifugation, washed in PBS, and resuspended in HYPO buffer (0.1% wt/vol) Na3Citrate and 0.1% (wt/vol) Triton™ X-100 containing […] propidium iodide and incubated for 1 hour. The cells were then analyzed by fluorescence-activated cell sorter (FACS) with a Becton Dickinson (San Jose, Calif.) FACScan instrument using a 488 nm excitation wavelength with a band pass filter set at 530 nm. Attached cells were scraped in HYPO buffer after washing cells with PBS.
DNA laddering was also used to compare the effect of gliotoxin, chlorpromazine, methapyrilene and also the combination of TNF-α with cycloheximide on hepatocytes and hepatic stellate cells.

[7] = tested on: rat hepatic stellate cells; assay: Hepatic stellate cell apoptosis by acridine orange staining and counting (cycloheximide or serum deprivation), rat cells; type: cell-based; settings: rat HSC; protein at 142.5 ng/ml
Protocol: (§2) Human hepatic stellate cells were extracted from the margins of normal human liver resected for colonic metastatic disease as previously described (Iredale et al., Clin. Sci., (1995) 89: 75-81). Rat hepatic stellate cells were extracted from normal rat liver by Pronase and collagenase digestion and purified by centrifugal elutriation as described (Arthur et al., J. Clin. Invest., (1989) 84:1076-1085). Extracted hepatic stellate cells were cultured on plastic until they were activated to a myofibroblastic phenotype after 7 to 10 days. Human and rat hepatic stellate cells were used for experiments after activation in primary culture or before fourth passage. Cells were cultured in Dulbecco's modified Eagle's medium in the presence of 16% fetal calf serum and antibiotics.
(§3) Apoptosis of hepatic stellate cells was induced by absolute serum deprivation, cycloheximide treatment (Issa et al., Gut (2001) 48: S48-S57), or exposure to nerve growth factor as previously described (Trim et al., Am. J. Pathol., (2000) 156, 1235-1243). Hepatic stellate cells were cultured in 24-well tissue culture plates. Rat and human hepatic stellate cells were exposed to proapoptotic stimuli with and without recombinant TIMP-1 (Biogenesis, Poole, UK) and other manipulations as detailed below. Following a 4 hour incubation at 37° C., nuclear morphology was assessed by adding acridine orange to each well (final concentration 1 μg/ml) and observing the cells under blue fluorescence. The total number of apoptotic bodies was counted, and any apoptotic bodies floating in the supernatant were included by racking up the objective lens. The total number of cells per field was counted, and an apoptotic index was calculated. Each condition was performed in duplicate, and three high power fields were counted for each well. […] To examine for autocrine effects, hepatic stellate cells were incubated for 18 hours with azide-free polyclonal neutralizing antibodies to TIMP-1 and a nonimmune IgG control (Santa Cruz Biotechnology, Inc., Santa Cruz, Calif.), and responses were assessed by acridine orange staining and counting.
Apoptosis was assessed by acridine orange staining. […] A normal cell lies adjacent to the apoptotic body. This technique was used to determine the percentage of apoptotic hepatic stellate cells following exposure to cyclohexamide in the presence or absence of TIMP-1. Hepatic stellate cells were exposed to 50 μM cyclohexamide and 0, 1, 10, 100 or 200 ng/ml of TIMP-1. Cells treated with serum alone were used as controls. […] Bovine serum albumin, used as a carrier for the TIMP-1 had no antiapoptotic effect.

[8] = tested on: caspase-3 activity in hepatic stellate cells; assay: Caspase-3 activity in cycloheximide-treated hepatic stellate cells; type: cell-based; settings: wild type TIMP-1 or T2G mutant N-TIMP-1
Protocol: Apoptosis was quantified by a colorimetric assay for caspase-3 activity (Promega) according to the manufacturer's instructions.
Caspase-3 is a central caspase in the proapoptotic cascade (Hengartner, Nature (2000) 407, 770-776) and can be used as an alternative assay to assess apoptosis. Hepatic stellate cells were cultured in 50 μM cycloheximide with TIMP-1 at a concentration of 0, 1, 10, or 100 ng/ml. Controls where cells were incubated with either the caspase 3 inhibitor benzyloxycarbonyl-Val-Ala-Asp-fluoromethylketone or serum alone were also performed. Data are expressed as mean ±S.E. and are presented as percentage of control given the arbitrary value of 100%. * indicates p<0.001; n=3. […] Although the mean caspase-3 activity of the cells treated with 10 ng/ml TIMP-1 was slightly lower than that treated with 100 ng/ml of TIMP-1, this was not statistically significant (p=0.67 by Student's t test).

[9] = tested on: human hepatic stellate cells; assay: Hepatic stellate cell apoptosis by acridine orange staining and counting (cycloheximide or serum deprivation), human cells; type: cell-based; settings: human HSC; protein at 142.5 ng/ml
Protocol: as §2
as §3, with “Rat and human hepatic stellate cells were exposed to proapoptotic stimuli with and without recombinant TIMP-1 (Biogenesis, Poole, UK) and other manipulations as detailed below.” left out
Apoptosis was assessed by acridine orange staining. […]

CC(O)C(C)OC(=O)[C@@H]1C[C@@H]2c3cccc4c3c(cn4C(C)C)C[C@H]2N(C)C1 (stereo partly shown) [LY 53,857]
maximal nuclear condensation ([1]; 24 hours at 100 μM (LY 53,857)): ~100% | specific caspase 3 activity ([2]; 100 μM for 24 hours (LY 53,857)): 1 μmol pNA liberated/hour/μg protein | effect of serotonin on the specific caspase 3 activity [2]: not significantly reduced by the presence of serotonin

CSc1ccc2c(c1)C(N1CCN(C)CC1)Cc1ccccc1S2.O=C(O)/C=C\C(=O)O (stereo not shown) [Methiothepin maleate]
maximal nuclear condensation ([1]; 3 hours at 10-100 μM (Methiothepin maleate)): 100% | specific caspase 3 activity ([2]; 10 μM for 3 hours (Methiothepin maleate)): 0.9 μmol pNA liberated/hour/μg protein | effect of serotonin on the specific caspase 3 activity [2]: not significantly reduced by the presence of serotonin

O=C(CCCN1CCC2(CC1)C(=O)NCN2c1ccccc1)c1ccc(F)cc1 [Spiperone]
maximal nuclear condensation ([1]; 24 hours at 100 μM (Spiperone)): 80% | specific caspase 3 activity ([2]; 100 μM for 24 hours (Spiperone)): 6.5 μmol pNA liberated/hour/μg protein | specific caspase 3 activity in the presence of serotonin ([2]; Spiperone 100 μM for 24 hours with serotonin (100 M [sic])): 4 μmol pNA liberated/hr/μg protein

CN(C)CCCN1c2ccccc2Sc2ccc(Cl)cc21 [chlorpromazine]
0.1% (wt/vol) trypan blue exclusion (membrane integrity) [3]: unable to exclude 0.1% (wt/vol) trypan blue | increase in caspase 3 activity [4]: not seen | hepatocytes that do not exclude trypan blue, compared with 50 μmol/L gliotoxin [5]: a level similar | cleavage of hepatocyte DNA to a nucleosomal ladder [6]: only hepatocytes treated with TNF-α and cycloheximide cleaved their DNA to a nucleosomal ladder

wild type N-TIMP-1: wild type (active) TIMP-1 protein compared with the T2G mutant
apoptosis induced by cycloheximide (acridine orange) [7]: significantly inhibited apoptosis | caspase-3 activity in cycloheximide-treated hepatic stellate cells [8]: significantly reduced caspase-3 activity | apoptosis induced by cycloheximide (acridine orange) [9]: significantly inhibited apoptosis
